Measurements published in PubChem BioAssay (NCI).
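How tested: cells in 96-well plates exposed to compound for 48 hours at five concentrations. GI50 is the concentration that inhibits growth by half. TGI: total growth inhibition.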

What was measured:
Experiment in all cases: DTP human tumour cell line panel, 48 h
[1] = test system: 786-0 renal
[2] = test system: A498 renal
[3] = test system: A549 NSCLC
[4] = test system: ACHN renal
[5] = test system: BT-549 breast
[6] = test system: CAKI-1 renal
[7] = test system: CCRF-CEM leukemia
[8] = test system: COLO 205 colon
[9] = test system: DU-145 prostate
[10] = test system: EKVX NSCLC
[11] = test system: HCC-2998 colon
[12] = test system: HCT-116 colon
[13] = test system: HCT-15 colon
[14] = test system: HL-60(TB) leukemia
[15] = test system: HOP-62 NSCLC
[16] = test system: HS 578T breast
[17] = test system: HT29 colon
[18] = test system: IGROV1 ovarian
[19] = test system: K-562 leukemia
[20] = test system: KM12 colon
[21] = test system: LOX IMVI melanoma
[22] = test system: M14 melanoma
[23] = test system: MALME-3M melanoma
[24] = test system: MDA-MB-231 breast
[25] = test system: MDA-MB-435
[26] = test system: NCI-H226 lung
[27] = test system: NCI-H23 lung
[28] = test system: NCI-H522 lung
[29] = test system: NCI/ADR-RES ovarian
[30] = test system: OVCAR-3 ovarian
[31] = test system: OVCAR-4 ovarian
[32] = test system: OVCAR-5 ovarian
[33] = test system: OVCAR-8 ovarian
[34] = test system: PC-3 prostate
[35] = test system: RPMI-8226 leukemia
[36] = test system: RXF 393 renal
[37] = test system: SF-295 CNS
[38] = test system: SF-539 CNS
[39] = test system: SK-MEL-2 melanoma
[40] = test system: SK-MEL-28 melanoma
[41] = test system: SK-MEL-5 melanoma
[42] = test system: SK-OV-3 ovarian
[43] = test system: SN12C renal
[44] = test system: SNB-75 CNS
[45] = test system: SR leukemia
[46] = test system: SW-620 colon
[47] = test system: T-47D breast
[48] = test system: TK-10 renal
[49] = test system: U251 CNS
[50] = test system: UACC-257 melanoma
[51] = test system: UACC-62 melanoma
[52] = test system: UO-31 renal
[53] = test system: MOLT-4 leukemia
[54] = test system: NCI-H460 lung

## CO/N=C(\COc1ccc2oc(-c3ccccc3)cc(=O)c2c1)c1ccc(F)cc1
[1]
  GI50: 21.3 µM
  TGI: 43.7 µM
[2]
  GI50: 29.1 µM
  TGI: 82.9 µM
[3]
  GI50: 20 µM
  TGI: 48.7 µM
[4]
  GI50: 17.2 µM
  TGI: 34.5 µM
[5]
  GI50: 29.6 µM
  TGI: > 100 µM
[6]
  GI50: > 100 µM
  TGI: > 100 µM
[7]
  GI50: > 100 µM
  TGI: > 100 µM
[8]
  GI50: 59.5 µM
  TGI: > 100 µM
[9]
  GI50: 25 µM
  TGI: 76.5 µM
[10]
  GI50: 35.9 µM
  TGI: > 100 µM
[11]
  GI50: 23.6 µM
  TGI: 54.4 µM
[12]
  GI50: 20.3 µM
  TGI: 48.2 µM
[13]
  GI50: 40.2 µM
  TGI: > 100 µM
[14]
  GI50: 27.3 µM
  TGI: > 100 µM
[15]
  GI50: 18.6 µM
  TGI: 35.2 µM
[16]
  GI50: 23.2 µM
  TGI: 71 µM
[17]
  GI50: 31.4 µM
  TGI: > 100 µM
[18]
  GI50: 15.2 µM
  TGI: 35.9 µM
[19]
  GI50: 81.2 µM
  TGI: > 100 µM
[20]
  GI50: 46.9 µM
  TGI: > 100 µM
[21]
  GI50: 25.2 µM
  TGI: 77.9 µM
[22]
  GI50: 32.2 µM
  TGI: > 100 µM
[23]
  GI50: 30.3 µM
  TGI: 67.1 µM
[24]
  GI50: 18.7 µM
  TGI: 39 µM
[25]
  GI50: > 100 µM
  TGI: > 100 µM
[26]
  GI50: 29.7 µM
  TGI: > 100 µM
[27]
  GI50: 23.1 µM
  TGI: 64.7 µM
[28]
  GI50: 15.4 µM
  TGI: 40.5 µM
[29]
  GI50: 21 µM
  TGI: 49.9 µM
[30]
  GI50: > 100 µM
  TGI: > 100 µM
[31]
  GI50: 22.3 µM
  TGI: 55.8 µM
[32]
  GI50: 17.5 µM
  TGI: 39.1 µM
[33]
  GI50: 21 µM
  TGI: 47.6 µM
[34]
  GI50: 22.6 µM
  TGI: 57.3 µM
[35]
  GI50: 24.6 µM
  TGI: > 100 µM
[36]
  GI50: 15.8 µM
  TGI: 44.7 µM
[37]
  GI50: > 100 µM
  TGI: > 100 µM
[38]
  GI50: 20.9 µM
  TGI: 42.9 µM
[39]
  GI50: 24.4 µM
  TGI: 73.3 µM
[40]
  GI50: 48.2 µM
  TGI: > 100 µM
[41]
  GI50: 31.3 µM
  TGI: 93.5 µM
[42]
  GI50: 20 µM
  TGI: 44.8 µM
[43]
  GI50: 16.9 µM
  TGI: 35 µM
[44]
  GI50: 17.4 µM
  TGI: 40.6 µM
[45]
  GI50: 15.7 µM
  TGI: > 100 µM
[46]
  GI50: 30.3 µM
  TGI: > 100 µM
[47]
  GI50: 21.5 µM
  TGI: 59.3 µM
[48]
  GI50: 22.9 µM
  TGI: 53 µM
[49]
  GI50: 18 µM
  TGI: 35.1 µM
[50]
  GI50: 20.8 µM
  TGI: 46.7 µM
[51]
  GI50: 21.9 µM
  TGI: 86.5 µM
[52]
  GI50: 18.1 µM
  TGI: 42.1 µM

## Cc1cn(S(=O)(=O)c2ccccc2)c2c(OCc3ccccc3)cc(NC(=O)c3cc4cc([N+](=O)[O-])ccc4s3)cc12
[3]
  TGI: > 100 µM
[4]
  TGI: > 100 µM
[5]
  TGI: > 100 µM
[6]
  TGI: > 100 µM
[7]
  TGI: > 100 µM
[8]
  TGI: > 100 µM
[9]
  TGI: > 100 µM
[10]
  TGI: > 100 µM
[11]
  TGI: > 100 µM
[13]
  TGI: > 100 µM
[14]
  TGI: > 100 µM
[15]
  TGI: > 100 µM
[16]
  TGI: > 100 µM
[18]
  TGI: > 100 µM
[21]
  TGI: > 100 µM
[22]
  TGI: > 100 µM
[23]
  TGI: > 100 µM
[24]
  TGI: > 100 µM
[53]
  TGI: > 100 µM
[27]
  TGI: > 100 µM
[54]
  TGI: > 100 µM
[28]
  TGI: > 100 µM
[29]
  TGI: > 100 µM
[31]
  TGI: > 100 µM
[32]
  TGI: > 100 µM
[33]
  TGI: > 100 µM
[35]
  TGI: > 100 µM
[36]
  TGI: > 100 µM
[37]
  TGI: > 100 µM
[40]
  TGI: > 100 µM
[41]
  TGI: > 100 µM
[42]
  TGI: > 100 µM
[44]
  TGI: > 100 µM
[46]
  TGI: > 100 µM
[48]
  TGI: > 100 µM
[52]
  TGI: > 100 µM
